# Measurements published in patent US20110092582A1, “New Terpenes And Macrocycles” (MERCK PATENT GESELLSCHAFT, priority 2008, published 2011).
# Target: T1, human TGR5 (Homo sapiens, UniProt Q8TDU6)
# T1 construct: expressed in transfected cells; host or cells: BHK cells
# T1 sequence (Q8TDU6 1-330): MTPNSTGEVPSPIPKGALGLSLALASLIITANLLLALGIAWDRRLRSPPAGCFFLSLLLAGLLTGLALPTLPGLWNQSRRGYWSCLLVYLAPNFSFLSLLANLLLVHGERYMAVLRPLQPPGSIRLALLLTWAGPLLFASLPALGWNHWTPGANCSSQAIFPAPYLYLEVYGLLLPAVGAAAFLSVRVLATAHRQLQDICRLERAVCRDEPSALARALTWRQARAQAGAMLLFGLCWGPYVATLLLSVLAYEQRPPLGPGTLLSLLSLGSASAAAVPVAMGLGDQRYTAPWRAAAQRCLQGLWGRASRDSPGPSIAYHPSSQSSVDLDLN
# Assay: cAMP production in BHK cells expressing the human TGR5 (CisBio cAMP kit), normalized to LCA = 100%
# Type: cell-based
# Settings: BHK cells expressing human TGR5, 30 minutes incubation
# Protocol: The activity of the natural products, with respect to their TGR5 activating capacities, was analyzed as follows:
# BHK cells, expressing the human TGR5, were seeded into 384-well plates and grown overnight. The next day, natural test compounds (and LCA as positive control) were incubated on the cells for 30 minutes. As TGR5 couples to […] proteins, the increase of cellular cAMP production, as a measure for TGR5 activity, was analyzed by using a commercially available cAMP kit (CisBio international). The cAMP production was measured according to the kit manufacturer's protocol. Data were normalized by setting the cAMP production induced by LCA to 100% activity. EC50 values were determined by using the GraphPad PrismSoftware (Graph. Pad Software Inc.).
SMILES,EC50 (unit inferred),EC50
"CCC(C)C1OC(=O)C(Cc2ccccc2)NC(=O)C(C)C/C(C)=C/C(C)C(O)/C(C)=C/C1C (centres unmarked) [A4, (8E,12E)-3-benzyl-15-sec-butyl-11-hydroxy-6,8,10,12,14-pentamethyl-1-oxa-4-azacyclopentadeca-8,12-diene-2,5-dione]",0.4 µM,
"C=CC1C(CO)=CCC2C1CCC1C(C)(C)C(=O)CCC21C (centres unmarked) [A1, 17-hydroxy-12,15-cleistanthadiene-3-one]",,3 µM
